Assay results: patent US9840493B2, “Modified amino acids comprising tetrazine functional groups, methods of preparation, and methods of their use” (SUTRO BIOPHARMA, INC., priority 2013, dated 2017)
Converted amounts (≈) assume the structure as drawn. Read-outs that look alike come from different tables or passages of the source.

Legend:
[1] = Solubility in phosphate buffered saline pH 7.4 at room temperature; format: physicochemical; settings: PBS pH 7.4, room temperature; for solubility: phosphate buffered saline, aqueous buffer, thermodynamic from solid
Method: This example describes the solubility of three non-natural amino acids comprising tetrazine functional groups in phosphate buffered saline solution, with a pH of 7.4 (PBS). The example also illustrates and discusses the useful increased solubility of the pyridyl tetrazine amino acids provided herein when compared to a phenyl tetrazine-comprising non-natural amino acid of the art.
A suspension of AB 4091 was formed by adding 1.8 mg of AB 4091 to 5 mL of PBS. The suspension was vortexed for five minutes and sonicated for two minutes. Suspended particles remained. Additional PBS was added to the suspension in small portions, with vortexing, to reach a total volume of 25 mL of PBS. This mixture remained cloudy after shaking overnight at room temperature and turned clear following the addition of 2 mL of PBS with vortexing. Clarity of the solution was determined by visual inspection.
A solution of compound (9) was formed by adding 8.3 mg of compound (9) to 200 μL of PBS to form a homogeneous solution. An additional 11.5 mg of compound (9) was added to this solution, in small portions, over a period of 20 minutes, with vortexing. The solution remained clear after vortexing, with no particulates or cloudiness observed. The maximum solubility of compound (9) was not reached, due to its high solubility and the limited amount of the compound available.
A solution of compound (6) was formed by adding 8.7 mg of compound (6) to 200 μL of PBS to form a homogenous solution. An additional 26.9 mg of compound (6) was added to this solution, in small portions, over a period of 25 minutes, with vortexing. The solution remained clear after vortexing, with no particulates or cloudiness observed. The maximum solubility of compound (6) was not reached, due to its high solubility and the limited amount of the compound available.

tRNA synthetase 2A9 = biological target: T1, tRNA synthetase 2A9 (Methanocaldococcus jannaschii, UniProt Q57834, D158G/H70A/L162S/L65V/Q109S/Y32G); assay: Cell-free GFP (K49TAG) expression assay: incorporation of non-natural amino acid by tRNA synthetase 2A9; format: biochemical, Methanococcus jannaschii; settings: 2-4 μM 2A9, compound of formula 6 at 1 mM, 30° C., 12 h, ex 476 nm / em 510 nm
T1 construct: made in house
Method: (§1) This example provides two novel tRNA synthetases useful with tetrazine-containing amino acids described herein. These two synthetases, designated “2A2” (SEQ ID NO: 4) and “2A9” (SEQ ID NO: 5) were produced by mutagenesis of wild-type tyrosyl-tRNA synthetase (TyrRS) from Methanococcus jannaschii (SEQ ID NO:3). Mutagenesis was performed by assembling overlapping oligonucleotides encoding the mutations by polymerase chain reaction (PCR). Mutants were screened utilizing the green fluorescent protein expression assay described below.
(§2) The ability of the novel tRNA synthetases to incorporate modified amino acids into a polypeptide was evaluated in cell-free protein synthesis reactions comprising DNA encoding SUPERFOLDER green fluorescent protein (GFP). The codon encoding position 49 of the GFP polypeptide, which normally encodes a lysine residue, was substituted with an amber stop codon (TAG). Full-length GFP is expressed only if the novel tRNA synthetases incorporate s modified amino acid into the polypeptide chain. The level of expression of full-length GFP can be evaluated by measuring fluorescence.
(§3) The GFP DNA containing the TAG stop codon was expressed in cell-free protein synthesis reactions as described in Zawada et al., 2011, Biotechnol. Bioeng. […]

tRNA synthetase 2A2 = biological target: T2, tRNA synthetase 2A2 (Methanocaldococcus jannaschii, UniProt Q57834, D158V/F108W/H70A/I159A/L162V/L65V/Q109S/Y32L); assay: Cell-free GFP (K49TAG) expression assay: incorporation of non-natural amino acid by tRNA synthetase 2A2; format: biochemical, Methanococcus jannaschii; settings: 4 μM 2A2, compound of formula 9 at 4 mM, 30° C., 12 h, ex 476 nm / em 510 nm
T2 construct: made in house
Method: as §1, §2, §3

[2] = solution remained clear, read-out: final concentration achieved (maximum solubility not reached)

T1 sequence (Q57834 whole entry Y32G/L65V/H70A/Q109S/D158G/L162S): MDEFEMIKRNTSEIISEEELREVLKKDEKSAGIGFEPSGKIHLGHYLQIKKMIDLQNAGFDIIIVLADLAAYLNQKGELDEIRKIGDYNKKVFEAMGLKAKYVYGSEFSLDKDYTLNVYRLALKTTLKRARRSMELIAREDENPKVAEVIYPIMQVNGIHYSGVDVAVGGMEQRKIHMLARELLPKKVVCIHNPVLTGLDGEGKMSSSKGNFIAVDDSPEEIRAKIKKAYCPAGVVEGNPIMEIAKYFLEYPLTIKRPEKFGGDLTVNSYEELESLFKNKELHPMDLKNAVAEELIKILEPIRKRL
T2 sequence (Q57834 whole entry Y32L/L65V/H70A/F108W/Q109S/D158V/I159A/L162V): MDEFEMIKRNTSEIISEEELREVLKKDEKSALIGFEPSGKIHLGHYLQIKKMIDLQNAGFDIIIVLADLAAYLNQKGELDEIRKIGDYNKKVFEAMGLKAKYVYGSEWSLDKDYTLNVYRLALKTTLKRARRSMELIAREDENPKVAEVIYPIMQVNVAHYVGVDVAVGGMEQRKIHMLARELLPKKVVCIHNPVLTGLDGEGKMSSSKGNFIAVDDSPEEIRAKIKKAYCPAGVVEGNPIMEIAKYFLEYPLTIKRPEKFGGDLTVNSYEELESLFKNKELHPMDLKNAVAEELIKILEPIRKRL

SMILES | solubility ([1]; clarity by visual inspection, read-out: solubility) [mM] | solubility relative to the solubility of AB 4091 [1] | solubility [1, 2] [mM] | GFP fluorescence compared with native GFP positive control (tRNA synthetase 2A9) | GFP fluorescence compared with native GFP positive control (tRNA synthetase 2A2)
Cc1nnc(Nc2ccc(CC(N)C(=O)O)cc2)nn1 (stereo not shown) [AB 4091, reference compound] | ~0.215 (≈ 0.059 mg/mL) |  |  |  | 
Cc1nnc(Nc2ccc(C[C@H](N)C(=O)O)cn2)nn1 [compound (6)] |  | over 3000 fold | ≥ 647 | approaches that of native GFP | 
Cc1nnc(NCc2ccc(C[C@H](N)C(=O)O)nc2)nn1 [compound (9)] |  | over 1600 fold | ≥ 342 |  | approximately equivalent to that of native GFP
